These results are taken from ChEMBL document CHEMBL3621063, “Discovery of potent HIV-1 non-nucleoside reverse transcriptase inhibitors from arylthioacetanilide structural motif” (Eur J Med Chem, 2015).

The subject of data set [1] is Human immunodeficiency virus 1. Description: Antiviral activity against wild-type HIV-1 infected in human MT4 cells. Format: functional, organism-based. Particulars: Human immunodeficiency virus 1, MT4.
Data set [2] can be described thus: Selectivity index, ratio of CC50 for human MT4 cells to EC50 for wild-type HIV-1 infected in human MT4 cells. Format: toxicity, cell-based. Particulars: uninfected and infected with wild-type HIV-1, read-out: Ratio CC50/EC50.
Data set [3] relates to Human immunodeficiency virus 1. The data set can be described thus: Antiviral activity against HIV-1 harboring reverse transcriptase K103N/Y181C double mutant infected in human MT4 cells. Particulars: Human immunodeficiency virus 1, MT4. Format: functional, organism-based.
Data set [4] in a line: Selectivity index, ratio of CC50 for human MT4 cells to EC50 for HIV-1 harboring reverse transcriptase K103N/Y181C double mutant infected in human MT4 cells. Particulars: read-out: Ratio CC50/EC50. Format: toxicity, cell-based.
Data set [5] can be described thus: Cytotoxicity against human MT4 cells. Format: cell-based.
The subject of data set [6] is Human immunodeficiency virus 1. Description: Antiviral activity against HIV-1 3B infected in human MT4 cells assessed as cell viability after 5 days by MTT assay. The format is functional, organism-based. Particulars: Human immunodeficiency virus 1, 3B, MT4, 120 h. For orientation: Tetrazolium assays rely on reduction of a dye to a coloured formazan, in cell work by metabolically active cells.

Take `O=C(CSc1nnsc1-c1cccc2ccccc12)Nc1ccccc1Br`: the figures for the EC50 in data set [1] and in data set [3] were 0.044 µM and 34.4 µM, respectively. Also, the selectivity ratio in data set [2] was determined as 3920; in data set [4] it was 5. In data set [5], this molecule yielded a CC50 of 172 µM.

As to `O=C(CSc1nnsc1-c1cccc2ccccc12)Nc1cccnc1Cl`, the EC50 came out at 0.019 µM in data set [1] and 5.11 µM in data set [3]. Also, the selectivity ratio came to 6440 in data set [2] and 24 in data set [4]. For the same molecule, it took 121 µM to reach half-maximal cytotoxicity in data set [5] (CC50).

Turning to `O=C(CSc1sc(Cl)nc1-c1ccc(Br)cc1Br)Nc1ccccc1[N+](=O)[O-]`, the EC50 in data set [6] was 2.09 µM.

The EC50 is the concentration giving half of the maximal effect. A word on the CC50: it is the concentration giving 50% cytotoxicity.
